“And” between values parts separate entries of the source, which are not always exact repeats. Identical values can stand only once.
Tests used:
[1] = tested on: postmenopausal women; conditions: taken together with supplemental hormones; 202 postmenopausal women; cited from earlier work
[2] = tested on: men with erectile dysfunction; test: Clinical study of arginine aspartate (Sargenor) alone and with Pycnogenol in 40 men with erectile dysfunction; assay type: in vivo, human
Method: A clinical study was conducted on forty participants who had erectile dysfunction. The study involved the effect of taking arginine asparatate, which is a salt of arginine with aspartic acid. One gram of arginine asparatate contains 566.85 mg of arginine.
The participants were grouped according to their variant of disturbed erection. The variants are in five categories: weakened, delayed, hesitating, losing and normal. The “weakened” variant signifies that the penis increases in size and becomes hard to a certain extent, but it is not enough to enter the vagina. The “delayed” variant signifies that if it is possible for the penis to become hard enough to enter the vagina, but such may require additional time. The “hesitating” variant signifies that before or after sexual contact, the erection is unstable and thus makes the sexual intercourse more difficult. The “losing” variant signifies that during the love game there is good erection, but such is lost when trying to make contact or during intercourse. The “normal” variant signifies that no appreciable disturbed erection was present.
The clinical study was over three months. During the first month, only 3 doses of 1000 milligrams (mg) of arginine asparatate (Sargenor) were administered daily to each participant. By the end of the first month, there was improvement in erectile dysfunction in about 10% of the participants. During the second month, 2 doses of 40 mg of Pycnogenol® food supplement were administered daily to each participant, together with the 3 doses of 1000 mg of arginine asparatate. By the end of the second month, there was a statistically significant improvement of erectile dysfunction in 80% of the participants. During the third month, 3 doses of 40 mg of Pycnogenol® food supplement were administered daily to each participant, together with the 3 doses of 1000 mg of arginine asparatate. By the end of the third month, there was further improvement of the erectile dysfunction condition even for some of the participants who had not shown improvement during the second month. Overall, there was a statistically significant improvement of erectile dysfunction in 92% of the treated participants.
The following statistical analysis of the results from the clinical study calculate the probability of whether the observed differences between two treatments are statistically significant at a certain level.
Dr. Romil Stanislavov and V. Nikolova of The Seminological Laboratory SBALAG in Maichin Dom, Sofia, Bulgaria investigated the possibility to overcome erectile dysfunction by increasing the amounts of endogenous NO. For this purpose, Pycnogenol® pine bark extract as it is known to stimulate nitric oxide synthase was orally administered together with L-arginine as substrate for this enzyme.
The study included 40 men aged 25 to 45 years (mean age 36.6.+−.5.3 years) with confirmed functional erectile dysfunction of at least 3 months duration, who were unable to achieve adequate erection and rigidity sufficient for vaginal penetration and completion of successful intercourse after spontaneous sexual stimulation. All patients were required to be involved in a stable, monogamous relationship with a female partner for more than 6 months.
Exclusion criteria were severe cardiovascular diseases, hypertension, renal failure, hepatic insufficiency, endocrine abnormalities, and psychiatric disorders. Patients were also excluded if they were currently or recently treated for erectile dysfunction by vasoactive medications, surgery, or any mechanical device. Concomitant use of other therapies for erectile dysfunction were not allowed. The study was approved by the Ethics Committee of Medical Research Board of the University Clinic of Sofia, Bulgaria and written consent was obtained from each participant. […]

[3] = tested on: men with testosterone levels below normal; test: Example 2: 12-month treatment of 50 men with testosterone levels below normal and secondary infertility; Global efficacy questionnaire on erection; assay type: in vivo, human; conditions: after 1 month treatment with L-arginine (only)
Method: In the department of Dr. Stanislavov and Dr. Nikolova 50 men aged between 45-60 with testosterone levels below normal were treated daily with • Pycnogenol® 120 mg • L-arginine (Sargenor) 1.71 g • Testosterone undecanoate 120 mg • over a period of 12 months because of secondary infertility.

[4] = after 1 month, arginine aspartate (Sargenor) 3 x 1000 mg daily only, 40 patients

Compound	Women reporting improved genital sensations [1] [%]	Responders (restored erectile function), number of patients ([2]; Sargenor only, 1. month)	Responders (restored erectile function), percent of patients ([2]; Sargenor only, 1. month) [%]	Normal erection, D (percent distribution) [2, 4] [%]	Normal erection, n (number of patients) [2, 4]	Variant of disturbed erection: Delayed, D (percent distribution) [2, 4] [%]	Variant of disturbed erection: Delayed, n (number of patients) [2, 4]	Variant of disturbed erection: Hesitating, D (percent distribution) [2, 4] [%]	Variant of disturbed erection: Hesitating, n (number of patients) [2, 4]	Variant of disturbed erection: Losing, D (percent distribution) [2, 4] [%]	Variant of disturbed erection: Losing, n (number of patients) [2, 4]	Variant of disturbed erection: Weakened, D (percent distribution) [2, 4] [%]	Variant of disturbed erection: Weakened, n (number of patients) [2, 4]	Participants with improvement in erectile dysfunction ([2]; end of first month, 3 doses of 1000 mg arginine asparatate daily only)	Mean time of duration (of the erection) ([2]; mean (SEM), responders, Sargenor only, 1. month) [min]	Mean time until response emerges ([2]; mean (SEM), responders, spontaneous sexual stimulation, Sargenor only, 1. month)	Assessment of erection: Disturbed (weakened, delayed, hesitating, loosing), number of patients [3]	Assessment of erection: Disturbed (weakened, delayed, hesitating, loosing), percent of patients [3] [%]	Assessment of erection: Normal, number of patients [3]	Assessment of erection: Normal, percent of patients [3] [%]
CCCc1nn(C)c2c(=O)[nH]c(-c3cc(S(=O)(=O)N4CCN(C)CC4)ccc3OCC)nc12 [sildenafil]	57	–	–	–	–	–	–	–	–	–	–	–	–	–	–	–	–	–	–	–
L-arginine aspartate [Sargenor]	–	2	5	5	2	25	10	10	4	10	4	50	20	about 10%	2 ± 1	10 min and 10 ± 2 min	42	84	8	16

Reference: patent US20050171030A1, “Relieving symptoms of erectile dysfunction and attaining sexual wellness and health of the sexual vascular system with proanthocyanidins” (priority 2000, published 2005)
